# Reference: ChEMBL document CHEMBL2062522, “Halogenated spirotetronates from Actinoallomurus” (J Nat Prod, 2012)
# Calls of active or inactive are those of the source. No cut-off for these calls is given here.
# Key:
# Staphylococcus aureus [1] = assay: Antibacterial activity against methicillin-sensitive Staphylococcus aureus ATCC 29213 by broth microdilution method; type: functional
# cells = conditions: Homo sapiens, HMEC-1, 72 h
# Description: Cytotoxicity against human HMEC1 cells after 72 hrs by MTT assay
# Streptococcus pyogenes = assay: Antibacterial activity against Streptococcus pyogenes isolate L49 by broth microdilution method; type: functional
# Streptococcus pneumoniae [2] = assay: Antibacterial activity against penicillin-sensitive Streptococcus pneumoniae isolate L44 by broth microdilution method
# [3] = Cytotoxicity against mouse BMDM cells after 72 hrs by MTT assay; type: cell-based
# Enterococcus faecalis [4] = assay: Antibacterial activity against vancomycin-resistant Enterococcus faecalis isolate L560 by broth microdilution method; type: functional
# Enterococcus faecium [5] = assay: Antibacterial activity against vancomycin-sensitive Enterococcus faecium isolate L568 by broth microdilution method; type: functional
# Enterococcus faecium [6] = assay: Antibacterial activity against vancomycin-resistant Enterococcus faecium isolate L569 by broth microdilution method; type: functional
# Staphylococcus aureus [7] = assay: Antibacterial activity against methicillin-resistant Staphylococcus aureus isolate L1400 by broth microdilution method; type: functional
# Enterococcus faecalis [8] = assay: Antibacterial activity against vancomycin-sensitive Enterococcus faecalis isolate L559 by broth microdilution method; type: functional
# Streptococcus pneumoniae [9] = assay: Antibacterial activity against Streptococcus pneumoniae BAA1402 expressing MefE efflux pump by broth microdilution method; type: functional
# [10] = test system: Staphylococcus haemolyticus; assay: Antibacterial activity against methicillin-sensitive Staphylococcus haemolyticus isolate L1730 by broth microdilution method; type: functional
# Staphylococcus aureus [11] = assay: Antibacterial activity against methicillin-sensitive Staphylococcus aureus ATCC 25923 by broth microdilution method; type: functional
# Staphylococcus aureus [12] = assay: Antibacterial activity against glycopeptide-intermediate,methicillin-resistant Staphylococcus aureus isolate L3797 by broth microdilution method; type: functional
# Staphylococcus aureus [13] = assay: Antibacterial activity against methicillin-sensitive Staphylococcus aureus ATCC 6538P by broth microdilution method; type: functional
# [14] = test system: Staphylococcus haemolyticus; assay: Antibacterial activity against methicillin-resistant Staphylococcus haemolyticus isolate L1729 by broth microdilution method; type: functional
# Staphylococcus aureus [15] = assay: Antibacterial activity against glycopeptide-intermediate Staphylococcus aureus isolate L3798 by broth microdilution method; type: functional
# Candida albicans = assay: Antifungal activity against Candida albicans; type: functional, organism-based
SMILES,MIC (Staphylococcus aureus [1]),IC50 (cells),MIC (Streptococcus pyogenes),MIC (Streptococcus pneumoniae [2]),IC50 [3],MIC (Enterococcus faecalis [4]),MIC (Enterococcus faecium [5]),MIC (Enterococcus faecium [6]),MIC (Staphylococcus aureus [7]),MIC (Enterococcus faecalis [8]),MIC (Streptococcus pneumoniae [9]),MIC [10],MIC (Staphylococcus aureus [11]),MIC (Staphylococcus aureus [12]),MIC (Staphylococcus aureus [13]),MIC [14],MIC (Staphylococcus aureus [15]),Activity (Candida albicans)
CC[C@H]1C[C@@]23OC(=O)C(=C2O)C(=O)[C@]2(CC)[C@@H](C=C[C@@H]4[C@@H](O[C@H]5C[C@@H](O)[C@H](NC(=O)c6[nH]ccc6Br)[C@@H](C)O5)[C@@H](C)CC[C@@H]42)CCCC/C=C/[C@@]3(C)C=C1C(=O)O,2 µg/mL,43 µM,4 µg/mL,8 µg/mL,143 µM,16 µg/mL,64 µg/mL,64 µg/mL,4 µg/mL,16 µg/mL,–,–,–,–,–,–,–,–
CC[C@H]1C[C@@]23OC(=O)C(=C2O)C(=O)[C@]2(CC)[C@@H](C=C[C@@H]4[C@@H](O[C@H]5C[C@@H](O)[C@H](NC(=O)c6[nH]c(Cl)c(Cl)c6Cl)[C@@H](C)O5)[C@@H](C)CC[C@@H]42)CCCC/C=C/[C@@]3(C)C=C1C(=O)O,2 µg/mL,2 µM,8 µg/mL,8 µg/mL,47 µM,2 µg/mL,16 µg/mL,8 µg/mL,4 µg/mL,2 µg/mL,> 128 µg/mL,4 µg/mL,2 µg/mL,4 µg/mL,2 µg/mL,4 µg/mL,4 µg/mL,–
COc1cccc2c1C(=O)c1c(O)c3c(c(O)c1C2=O)C[C@@](O)(C(=O)CO)C[C@@H]3O[C@H]1C[C@H](N)[C@H](O)[C@H](C)O1 [DOXORUBICIN],–,0.06 µM,–,–,4.6 µM,–,–,–,–,–,–,–,–,–,–,–,–,–
CC[C@H]1C[C@@]23OC(=O)C(=C2O)C(=O)[C@]2(CC)[C@@H](C=C[C@@H]4[C@@H](O[C@H]5C[C@@H](O)[C@H](NC(=O)c6[nH]c(Cl)cc6Cl)[C@@H](C)O5)[C@@H](C)CC[C@@H]42)CCCC/C=C/[C@@]3(C)C=C1C(=O)O,0.25 µg/mL,9 µM,2 µg/mL,4 µg/mL,50 µM,0.5 µg/mL,8 µg/mL,4 µg/mL,1 µg/mL,0.5 µg/mL,64 µg/mL,1 µg/mL,0.5 µg/mL,0.5 µg/mL,0.5 µg/mL,1 µg/mL,1 µg/mL,inactive
CN[C@H](CC(C)C)C(=O)N[C@H]1C(=O)N[C@@H](CC(N)=O)C(=O)N[C@H]2C(=O)N[C@H]3C(=O)N[C@H](C(=O)N[C@H](C(=O)O)c4cc(O)cc(O)c4-c4cc3ccc4O)[C@H](O)c3ccc(c(Cl)c3)Oc3cc2cc(c3O[C@@H]2O[C@H](CO)[C@@H](O)[C@H](O)[C@H]2O[C@H]2C[C@](C)(N)[C@H](O)[C@H](C)O2)Oc2ccc(cc2Cl)[C@H]1O [VANCOMYCIN],–,–,1 µg/mL,0.5 µg/mL,–,> 128 µg/mL,–,> 128 µg/mL,–,1 µg/mL,4 µg/mL,1 µg/mL,–,> 128 µg/mL,–,2 µg/mL,8 µg/mL,–
CC[C@H]1C[C@@]23OC(=O)C(=C2O)C(=O)[C@]2(CC)[C@@H](C=C[C@@H]4[C@@H](O[C@H]5C[C@@H](O)[C@H](NC(=O)c6[nH]cc(Br)c6Br)[C@@H](C)O5)[C@@H](C)CC[C@@H]42)CCCC/C=C/[C@@]3(C)C=C1C(=O)O,8 µg/mL,3 µM,1 µg/mL,8 µg/mL,109 µM,16 µg/mL,32 µg/mL,32 µg/mL,16 µg/mL,32 µg/mL,–,–,–,–,–,–,–,–
